# Reference: patent US5773027A, “Liposomes encapsulating antiviral drugs” (priority 1995, dated 1998)
# Key:
# HIV-1Ada-M = assay: Antiviral efficacy in primary monocyte-derived macrophages infected with HIV-1Ada-M (p24); assay type: cell-based
# Procedure: Briefly, cells were infected with different strains of HIV with a multiplicity of infection of 1 (virus/target cell) and were treated with different concentrations of free and liposome-encapsulated drugs. Virus replication were monitored at different time intervals by measuring either the reverse transcriptase activity in cell-free supernatants or the viral p24 protein using an enzymatic test. Virus transcription was also monitored by polymerase chain reaction (PCR) analysis 24 hours after treatment using an HIV primer pair (M661/M667). The PCR evaluation was normalized with respect to the amount of human β-globin gene in cells. Cell viability was assessed using a tetrazolium-based colorimetric (MTT) assay.
# Peripheral blood mononuclear cells were suspended in seeding medium in a
# 48 wellplate at a density of 3 × 10^6 cells/ml. Five days after
# initiation of the cultures, nonadherent cells were removed by rinsing the
# cultures four times with PBS. Adherent cells were first preincubated in
# the presence or absence of drugcontaining medium for 2 hours prior to
# inoculation with 10,000 cpm/well of the AdaM monocytotropic strain of
# HIV1. Thereafter, medium was changed once every 4 to 5 days and was
# replaced with medium supplemented or not with ddI. Virus replication was
# monitored by measuring p24 levels using an enzymatic assay.
# [1] = Pharmacokinetics in rats (plasma); assay type: in vivo, rat (female Sprague-Dawley)
# Procedure: (§1) In brief, free and liposome-encapsulated drugs were injected to female Sprague-Dawley rats as a single intravenous bolus dose via a catheter inserted through the jugular vein of animals. At specific time points, animals were sacrificed and blood was collected in heparinized tubes and separated by centrifugation. At the same time, selected tissues were removed, washed, weighed and homogenized. Tissues and plasma were then treated according to a commercial tissue solubilizer procedure. The determination of drug and lipid levels in all samples were monitored with radioactive tracers.
# Parameters were calculated from the plasma concentrationtime curves using
# a noncompartmental model.
# Values are expressed as means ± SD obtained from 6 animals per group
# [2] = test system: murine monocyte-macrophage RAW 264.7 cells; assay: Cellular uptake in RAW 264.7 cells; settings: in words, FIGS. 1a-1d
# Procedure: (§2) We have performed in vitro experiments to evaluate the accumulation of free and liposome-encapsulated anti-HIV agents in murine monocyte-macrophage RAW 264.7 cells and in human premonocytoid U937 cells. In brief, experiments were performed by incubating confluent cells in culture medium in presence of different concentrations of free and liposome-encapsulated anti-HIV agents in which a small proportion of radiolabeled drugs and lipids were added. At different incubation times, the medium was removed and cells were washed and treated with a Triton X-100 solution. Drug and lipid uptake were determined by measuring the radioactivity level with a liquid scintillation counter. The protein concentration for each sample was determined with a Pierce bicinchoninic acid protein assay (Rockford, Ill.) in microtiter plates.
# [3] = test system: human premonocytoid U937 cells; assay: Cellular uptake in U937 cells; settings: in words, FIGS. 1a, 1b
# Procedure: as §2
# [4] = Tissue distribution in rats; assay type: in vivo, rat (female Sprague-Dawley); settings: single i.v. dose 10 mg foscarnet/kg
# Procedure: as §1
# human CMV (AD169 strain) = assay: Anti-CMV activity: CMV p72 protein expression in MRC-5 cells; assay type: cell-based; settings: MRC-5 cell line, 96 hours, in words; FIG. 2g
# Procedure: The anti-CMV activity of free and liposome-encapsulated foscarnet has been also evaluated in embryonic lung fibroblast cells (MRC-5 cell line). […] After a 96 hours incubation, cells were fixed and immunoperoxydase staining was performed using a monoclonal antibody directed against a 72-kDa immediate early CMV protein Labeled plaques were counted and results were expressed as percent of untreated infected control cells versus concentration of foscarnet.
# [5] = [^3 H]ddI, single i.v. dose 3 mg ddI/kg, rats
# [6] = [^14 C]-PFA, single i.v. dose 10 mg/kg, rats, mean ± SD
smiles,measurement,setting,value
"O=c1[nH]cnc2c1ncn2[C@H]1CC[C@@H](CO)O1 [Free ddI, 2'-3'-dideoxyinosine]",p24 (Days post-infection),"HIV-1Ada-M; 0.1 μM, day 7",0 ng/mL
same,p24 (Days post-infection),"HIV-1Ada-M; 0.1 μM, day 13",20 ng/mL
same,p24 (Days post-infection),"HIV-1Ada-M; 0.1 μM, day 17",280 ng/mL
same,p24 (Days post-infection),"HIV-1Ada-M; 1 μM, day 7",0 ng/mL
same,p24 (Days post-infection),"HIV-1Ada-M; 1 μM, day 13",0 ng/mL
same,p24 (Days post-infection),"HIV-1Ada-M; 1 μM, day 17",0 ng/mL
same,p24 (Days post-infection),"HIV-1Ada-M; 10 μM, day 7",0 ng/mL
same,p24 (Days post-infection),"HIV-1Ada-M; 10 μM, day 13",0 ng/mL
same,p24 (Days post-infection),"HIV-1Ada-M; 10 μM, day 17",0 ng/mL
same,"AUC0-∞, area under the plasma concentration-time curve",[1]; [5],5.31 nmol/mL/h
same,"Cl, systemic clearance",[1]; [5],2.39 L/h/kg
same,"Kel, elimination rate constant",[1]; [5],4.97 h⁻¹
same,"MRT, mean residence time",[1]; [5],12 min
same,"Vdss, steady state volume of distribution",[1]; [5],0.48 L/kg
same,"t1/2, elimination half-life",[1]; [5],8.4 min
same,drug uptake / accumulation in cells,[2],a higher accumulation
same,drug uptake / accumulation in cells,[3],a higher accumulation
"O=C(O)P(=O)(O)O [Free foscarnet, foscarnet]","Area under the curve, Brain",[4]; brain,3.1 nmol foscarnet/g tissue/h
same,"Area under the curve, Eyes",[4]; eyes,22.9 nmol foscarnet/g tissue/h
same,"Area under the curve, Liver",[4]; liver,1.2 nmol foscarnet/g tissue/h
same,"Area under the curve, Lungs",[4]; lungs,1.5 nmol foscarnet/g tissue/h
same,"Area under the curve, Lymph nodes",[4]; lymph nodes,20.3 nmol foscarnet/g tissue/h
same,"Area under the curve, Spleen",[4]; spleen,0.8 nmol foscarnet/g tissue/h
same,inhibitory activity against CMV p72 protein expression,human CMV (AD169 strain),comparable inhibitory activity
same,"AUC0→∞, area under the plasma concentration-time curve",[1]; [6],48.0 ± 9.6 nmol/mL/h
same,"Cl, systemic clearance",[1]; [6],0.77 ± 0.15 L/h/kg
same,"Kel, elimination rate constant",[1]; [6],0.96 ± 0.06 h⁻¹
same,"MRT, mean residence time",[1]; [6],62.4 ± 4.2 min
same,"t1/2, elimination half-life",[1]; [6],42.6 ± 2.4 min
same,"Vdss, steady state volume of distribution","[1]; rat, in vivo, iv, 10 mg/kg",0.80 ± 0.14 L/kg
